Experimental data published in PubChem BioAssay AID248 (DTP/NCI, 2004).
Where “and” joins values, the source holds several entries; their conditions need not be identical. Identical values can stand only once. Inconclusive results and toxic doses are left out. Cut-off read from the data, not from the text of the source: active = T/C of 150% or more; inactive = T/C below 125%.

System: L1210 leukemia ip in BDF1 mice, survival T/C
Assay: NCI In Vivo Anticancer Drug Screen. Data for tumor model L1210 Leukemia (intraperitoneal) in B6D2F1 (BDF1) mice
Conditions: endpoint: mean survival time, higher = longer survival
Method in brief: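 In this screen, tumor-bearing mice given compound are compared to those given vehicle, and their survival values are reported as a treated-to-control quotient.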

[1] = dose: 50.0 mg/kg/injection, schedule: Q01DX001 (ip), vehicle: saline
[2] = dose: 100.0 mg/kg/injection, schedule: Q01DX001 (ip), vehicle: saline
[3] = dose: 200.0 mg/kg/injection, schedule: Q01DX001 (ip), vehicle: saline
[4] = dose: 400.0 mg/kg/injection, schedule: Q01DX001 (ip), vehicle: saline
[5] = dose: 100.0 mg/kg/injection, schedule: Q01DX009 (ip), vehicle: other
[6] = dose: 200.0 mg/kg/injection, schedule: Q01DX009 (ip), vehicle: other
[7] = dose: 100.0 mg/kg/injection, schedule: Q04DX003 (ip), vehicle: Klucel (hydroxypropylcellulose) (HPC)
[8] = dose: 200.0 mg/kg/injection, schedule: Q04DX003 (ip), vehicle: Klucel (hydroxypropylcellulose) (HPC)
[9] = dose: 400.0 mg/kg/injection, schedule: Q04DX003 (ip), vehicle: Klucel (hydroxypropylcellulose) (HPC)
[10] = dose: 100.0 mg/kg/injection, schedule: Q04DX003 (ip), vehicle: saline with Tween-80
[11] = dose: 200.0 mg/kg/injection, schedule: Q04DX003 (ip), vehicle: saline with Tween-80
[12] = dose: 400.0 mg/kg/injection, schedule: Q04DX003 (ip), vehicle: saline with Tween-80

Measured: T/C

CS(=O)(=O)OCCN(CCOS(C)(=O)=O)c1ccc(N=O)c(Cl)c1
inactive: dose: 0.08 mg/kg/injection, schedule: Q01DX015 (ip), vehicle: saline 97 % of control | dose: 0.14 mg/kg/injection, schedule: Q01DX015 (ip), vehicle: saline 103 % of control | dose: 0.22 mg/kg/injection, schedule: Q01DX001 (ip), vehicle: saline 114 % of control | dose: 0.23 mg/kg/injection, schedule: Q01DX015 (ip), vehicle: saline 114 % of control | dose: 0.5 mg/kg/injection, schedule: Q01DX001 (ip), vehicle: saline 122 % of control | dose: 1.0 mg/kg/injection, schedule: Q01DX015 (ip), vehicle: saline 124 % of control | dose: 2.0 mg/kg/injection, schedule: Q01DX015 (ip), vehicle: saline 97 % of control | dose: 4.0 mg/kg/injection, schedule: Q01DX001 (ip), vehicle: saline 117 % of control | dose: 4.5 mg/kg/injection, schedule: Q01DX001 (ip), vehicle: saline 86 % of control

Oc1cc2c3c(c1)-c1c(ccc(O)c1O)CC3NCC2 (stereo not given)
inactive: dose: 6.25 mg/kg/injection, schedule: Q04DX003 (ip), vehicle: DMSO 100 % of control | dose: 12.5 mg/kg/injection, schedule: Q04DX003 (ip), vehicle: DMSO 100 % of control | dose: 25.0 mg/kg/injection, schedule: Q04DX003 (ip), vehicle: DMSO 93 % of control | dose: 50.0 mg/kg/injection, schedule: Q04DX003 (ip), vehicle: DMSO 88 % of control

O=C(Cc1ccc2ccccc2c1)c1c[nH]c2ccccc12
inactive: [1] 102 % of control | [2] 102 % of control | [3] 98 % of control | [4] 93 % of control

O=C(/C(Br)=C/c1ccccc1)c1ccccc1
inactive: dose: 50.0 mg/kg/injection, schedule: Q01DX009 (ip), vehicle: other 103 % of control | [5] 105 % of control | [6] 100 % of control

NC(=O)/C=C\C(=O)O (tested in a mixture with another compound)
inactive: dose: 31.25 mg/kg/injection, schedule: Q#A X Z (ip), vehicle: carboxymethylcellulose (CMC) 106 % of control | dose: 62.5 mg/kg/injection, schedule: Q#A X Z (ip), vehicle: carboxymethylcellulose (CMC) 110 % of control | dose: 125.0 mg/kg/injection, schedule: Q#A X Z (ip), vehicle: carboxymethylcellulose (CMC) 118 % of control | dose: 250.0 mg/kg/injection, schedule: Q#A X Z (ip), vehicle: carboxymethylcellulose (CMC) 108 % of control

O=C(CC(O)(C(F)(F)F)C(F)(F)F)c1cc(CC(=O)C(O)(C(F)(F)F)C(F)(F)F)cc(CC(=O)C(O)(C(F)(F)F)C(F)(F)F)c1
inactive: [7] 100 % of control | [8] 92 % of control | [9] 97 % of control

O=C(Nc1cccc([N+](=O)[O-])c1)Nc1ccccc1Cl
inactive: dose: 100.0 mg/kg/injection, schedule: Q04DX002 (ip), vehicle: saline + alcohol 88 % of control | dose: 200.0 mg/kg/injection, schedule: Q04DX002 (ip), vehicle: saline + alcohol 88 % of control | dose: 400.0 mg/kg/injection, schedule: Q04DX002 (ip), vehicle: saline + alcohol 88 % of control

Oc1ccccc1N=Cc1ccc(C=Nc2ccccc2O)cc1
inactive: dose: 100.0 mg/kg/injection, schedule: Q01DX009 (ip), vehicle: gum acacia 101 % of control | dose: 100.0 mg/kg/injection, schedule: Q04DX003 (ip), vehicle: gum acacia 100 % of control | dose: 200.0 mg/kg/injection, schedule: Q01DX009 (ip), vehicle: gum acacia 97 % of control | dose: 200.0 mg/kg/injection, schedule: Q04DX003 (ip), vehicle: gum acacia 98 % of control | dose: 400.0 mg/kg/injection, schedule: Q01DX009 (ip), vehicle: gum acacia 107 % of control | dose: 400.0 mg/kg/injection, schedule: Q04DX003 (ip), vehicle: gum acacia 94 % of control

NC(CC(=O)N/C=N\O)C(=O)O (stereo not given)
inactive: [1] 98 % of control | [2] 102 % of control | [3] 104 % of control | [4] 104 % of control

CC(=O)c1ccc2c(c1)N(CCCN1CCN(CCO)CC1)c1ccccc1S2
inactive: dose: 0.78 mg/kg/injection, schedule: Q01DX009 (ip), vehicle: saline 93 % of control and 120 % of control | dose: 1.5 mg/kg/injection, schedule: Q01DX009 (ip), vehicle: saline 106 % of control | dose: 1.56 mg/kg/injection, schedule: Q01DX009 (ip), vehicle: saline 105 % of control and 113 % of control | dose: 3.12 mg/kg/injection, schedule: Q01DX009 (ip), vehicle: Klucel (hydroxypropylcellulose) (HPC) 113 % of control | dose: 3.12 mg/kg/injection, schedule: Q01DX009 (ip), vehicle: saline 102 % of control and 104 % of control and 116 % of control | dose: 6.25 mg/kg/injection, schedule: Q01DX009 (ip), vehicle: saline 103 % of control and 104 % of control | dose: 6.25 mg/kg/injection, schedule: Q04DX003 (ip), vehicle: saline 98 % of control | dose: 12.5 mg/kg/injection, schedule: Q01DX009 (ip), vehicle: Klucel (hydroxypropylcellulose) (HPC) 96 % of control | dose: 12.5 mg/kg/injection, schedule: Q04DX003 (ip), vehicle: saline 115 % of control | dose: 25.0 mg/kg/injection, schedule: Q01DX009 (ip), vehicle: saline 98 % of control

O=C(N/N=C/C=C\c1ccccc1)C(=O)N/N=C/C=C/c1ccccc1
inactive: [7] 94 % of control | [8] 89 % of control | [9] 94 % of control

CCCCCCNC1=C(C)C(=O)C(NCCCCCC)=C(C)C1=O
inactive: [2] 104 % of control | [3] 104 % of control | [4] 93 % of control

CCOC1OC(C(O)CO)C(O)C1O (stereo not given)
inactive: [10] 98 % of control | [11] 98 % of control | [12] 96 % of control

CC1(C)S[C@@H]2[C@H](NC=O)C(=O)N2[C@H]1C(=O)OCc1ccccc1
inactive: dose: 75.0 mg/kg/injection, schedule: Q01DX001 (ip), vehicle: carboxymethylcellulose (CMC) 90 % of control | dose: 150.0 mg/kg/injection, schedule: Q01DX001 (ip), vehicle: carboxymethylcellulose (CMC) 86 % of control

CNS(=O)(=O)c1ccc(Cl)cc1
inactive: [2] 95 % of control | dose: 100.0 mg/kg/injection, schedule: Q01DX009 (ip), vehicle: saline with Tween-80 118 % of control | dose: 100.0 mg/kg/injection, schedule: Q01DX009 (ip), vehicle: saline 98 % of control | [3] 101 % of control | dose: 200.0 mg/kg/injection, schedule: Q01DX009 (ip), vehicle: saline with Tween-80 94 % of control | [4] 96 % of control

ClC1(Cl)C2C=CC=CCC21 (stereo not given)
inactive: [5] 103 % of control | dose: 100.0 mg/kg/injection, schedule: Q04DX003 (ip), vehicle: other 103 % of control | [6] 97 % of control | dose: 200.0 mg/kg/injection, schedule: Q04DX003 (ip), vehicle: other 92 % of control | dose: 400.0 mg/kg/injection, schedule: Q01DX009 (ip), vehicle: other 92 % of control

CCOC(=O)C1=C(C)NC(C)=C(C(=O)OCC)C1c1ccnc2ccccc12
inactive: dose: 100.0 mg/kg/injection, schedule: Q01DX001 (ip), vehicle: steriod suspending solution 93 % of control | dose: 200.0 mg/kg/injection, schedule: Q01DX001 (ip), vehicle: steriod suspending solution 94 % of control | dose: 400.0 mg/kg/injection, schedule: Q01DX001 (ip), vehicle: steriod suspending solution 89 % of control

COC1OC2COC(c3ccccc3)OC2C(=O)C1OS(=O)(=O)c1ccc(C)cc1 (stereo not given)
inactive: [11] 89 % of control | [12] 86 % of control

c1ccc(P2(c3ccccc3)(c3ccccc3)C3C4C5C6C4C2C6C53)cc1 (stereo not given)
inactive: [10] 104 % of control | [11] 109 % of control | [12] 90 % of control
